# Measured values published in ChEMBL document CHEMBL1681776, “A photoreactive probe that differentiates the binding sites of noncompetitive GABA receptor antagonists” (Bioorg Med Chem Lett, 2011).
# Active and inactive are the calls of the source. The calls are words filed in the database; no cut-off is given here.
# How the values were obtained:
# [1] = (§1) Displacement of [3H]EBOB from Wistar rat brain membrane GABA receptor by liquid scintillation counting
# [2] = (§2) Displacement of [3H]EBOB from housefly head membrane GABA receptor by liquid scintillation counting; design: species or system Musca domestica
# [3] = species: Rattus norvegicus; experiment: as §1
# [4] = test system: Musca domestica; experiment: as §2
# [5] = species: Rattus norvegicus; experiment: Displacement of [3H]EBOB from GABA receptor in 365 nm ultraviolet light irradiated Wistar rat brain P2 membrane by photoaffinity labeling experiment
# [6] = species: Rattus norvegicus; experiment: Displacement of [3H]EBOB from GABA receptor in 365 nm ultraviolet light irradiated Wistar rat brain P2 membrane by photoaffinity labeling experiment in presence of picrotoxinin measured after membrane washout
# [7] = species: Rattus norvegicus; experiment: Displacement of [3H]EBOB from GABA receptor in Wistar rat brain P2 membrane in presence of fipronil measured after membrane washout; type: cell membranes
Compound,IC50 [1] [nM],IC50 [2] [nM],Activity [3],Activity [4],Activity [5],Activity [6],Activity [7]
CC(C)(C)CCOC(=O)c1ccc(C#CCCC(=O)O)cc1,88,3410,,,,,
COC(=O)CCC#Cc1ccc(C(=O)Oc2ccc(C3(C(F)(F)F)N=N3)cc2[N+](=O)[O-])cc1,1490,240,Dose-dependent effect,Dose-dependent effect,Active,inactive,Active
